*1 amine or outer side, *2 acyl side, *3 side chain or, on linkers, in order; H or OH if unused. Where a SMILES comes first, the peptide text is derived from it. Bridges are numbered along the chain shown (N, C = ends). Primed or numbered codes have the meaning given here. [ ]: non-standard residue; d: D form. 2Lut = 2,6-lutidylidene bridge between two thiols; Trp(5-Cl) = N[C@@H](Cc1c[nH]c2ccc(Cl)cc12)C(=O)O; Phe(3,4-Cl2) = N[C@@H](Cc1ccc(Cl)c(Cl)c1)C(=O)O; Pyridine(2,6-diCH2) = c1cc(C[*:1])nc(C[*:2])c1; Trp(7-F) = N[C@@H](Cc1c[nH]c2c(F)cccc12)C(=O)O; Phe(2,4-Cl2) = N[C@@H](Cc1ccc(Cl)cc1Cl)C(=O)O; 2Lut″ = 2,6-lutidylidene linking two thiols; Phe(3-Cl) = N[C@@H](Cc1cccc(Cl)c1)C(=O)O; Phe(4-Cl) = N[C@@H](Cc1ccc(Cl)cc1)C(=O)O; Thz(5,5-Me2) = CC1(C)SCN[C@@H]1C(=O)O; Ser(ΨH,HPro) = O=C(O)[C@@H]1COCN1; Hyp = O=C(O)[C@@H]1C[C@@H](O)CN1; hArg = N=C(N)NCCCC[C@H](N)C(=O)O; NMeE = CN[C@@H](CCC(=O)O)C(=O)O; pS = N[C@@H](COP(=O)(O)O)C(=O)O; hLys = NCCCCC[C@H](N)C(=O)O; Thz = O=C(O)[C@@H]1CSCN1; Thp = NC1(C(=O)O)CCOCC1
T1: GIPR (CHO-K1-hGIPR cells) (Homo sapiens, UniProt P48546)
T1 construct: host or cells: CHO-K1
T1 sequence (P48546 22-466): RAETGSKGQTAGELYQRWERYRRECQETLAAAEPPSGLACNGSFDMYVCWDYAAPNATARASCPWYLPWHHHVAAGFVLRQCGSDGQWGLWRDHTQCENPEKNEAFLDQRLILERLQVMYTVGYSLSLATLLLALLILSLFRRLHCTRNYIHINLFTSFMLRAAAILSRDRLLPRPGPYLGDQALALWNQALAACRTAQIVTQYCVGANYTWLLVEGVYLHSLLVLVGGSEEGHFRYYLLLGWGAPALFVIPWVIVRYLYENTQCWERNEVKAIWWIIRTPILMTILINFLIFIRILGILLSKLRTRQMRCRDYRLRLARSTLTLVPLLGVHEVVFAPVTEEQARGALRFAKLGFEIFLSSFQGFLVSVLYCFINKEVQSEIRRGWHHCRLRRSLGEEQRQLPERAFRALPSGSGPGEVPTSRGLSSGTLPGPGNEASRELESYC

T2: human GIP receptor (bioGIPR) (Homo sapiens, UniProt P48546)
T2 construct: Biotinylate extracellular of the human GIP receptor (bioGIPR, Proteros biostructures GmbH, lot #02/2b); purchased Proteros biostructures GmbH lot #02/2b
T2 sequence (P48546 22-138 limits assumed): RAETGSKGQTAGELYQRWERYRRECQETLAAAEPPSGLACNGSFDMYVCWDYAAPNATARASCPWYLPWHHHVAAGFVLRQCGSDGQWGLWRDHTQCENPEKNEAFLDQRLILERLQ

B1: Ac-Asp-Mcf-5Clw-Hyp-Glu-leu-[Cys(2Lut)-Thp-Leu-Ile-Cys]-NH2 (peptide)
peptide: Ac-D[Phe(3-Cl)][Trp(5-Cl)][Hyp]E[dL]C[Thp]LIC-NH2
modifications: linker 7-11 via Pyridine(2,6-diCH2)
SMILES: CC[C@H](C)[C@@H]1NC(=O)[C@H](CC(C)C)NC(=O)C2(CCOCC2)NC(=O)[C@@H](NC(=O)[C@@H](CC(C)C)NC(=O)[C@H](CCC(=O)O)NC(=O)[C@@H]2C[C@@H](O)CN2C(=O)[C@H](Cc2c[nH]c3ccc(Cl)cc23)NC(=O)[C@H](Cc2cccc(Cl)c2)NC(=O)[C@H](CC(=O)O)NC(C)=O)CSCc2cccc(n2)CSC[C@@H](C(N)=O)NC1=O
B2: Ac-Asp-Eaa-5Clw-Hyp-Glu-leu-[Cys(2Lut)-Thp-Leu-Ile-Cys]-NH2 (peptide)
peptide: Ac-D[Phe(3,4-Cl2)][Trp(5-Cl)][Hyp]E[dL]C[Thp]LIC-NH2
modifications: linker 7-11 via Pyridine(2,6-diCH2)
SMILES: CC[C@H](C)[C@@H]1NC(=O)[C@H](CC(C)C)NC(=O)C2(CCOCC2)NC(=O)[C@@H](NC(=O)[C@@H](CC(C)C)NC(=O)[C@H](CCC(=O)O)NC(=O)[C@@H]2C[C@@H](O)CN2C(=O)[C@H](Cc2c[nH]c3ccc(Cl)cc23)NC(=O)[C@H](Cc2ccc(Cl)c(Cl)c2)NC(=O)[C@H](CC(=O)O)NC(C)=O)CSCc2cccc(n2)CSC[C@@H](C(N)=O)NC1=O
B3: Ac-Asp-Hyw-5Clw-Hyp-Glu-leu-[Cys(2Lut)-Thp-Leu-Ile-Cys]-NH2 (peptide)
peptide: Ac-DX[Trp(5-Cl)][Hyp]E[dL]C[Thp]LIC-NH2
modifications: linker 7-11 via Pyridine(2,6-diCH2); not fully specified (residue 2); printed as Ac-Asp-Hyw-5Clw-Hyp-Glu-leu-[Cys(2Lut)-Thp-Leu-Ile-Cys]-NH2
B4: Ac-Asp-Egm-5Clw-Hyp-Glu-leu-[Cys(2Lut)-Thp-Leu-Ile-Cys]-NH2 (peptide)
peptide: Ac-D[Phe(2,4-Cl2)][Trp(5-Cl)][Hyp]E[dL]C[Thp]LIC-NH2
modifications: linker 7-11 via Pyridine(2,6-diCH2)
SMILES: CC[C@H](C)[C@@H]1NC(=O)[C@H](CC(C)C)NC(=O)C2(CCOCC2)NC(=O)[C@@H](NC(=O)[C@@H](CC(C)C)NC(=O)[C@H](CCC(=O)O)NC(=O)[C@@H]2C[C@@H](O)CN2C(=O)[C@H](Cc2c[nH]c3ccc(Cl)cc23)NC(=O)[C@H](Cc2ccc(Cl)cc2Cl)NC(=O)[C@H](CC(=O)O)NC(C)=O)CSCc2cccc(n2)CSC[C@@H](C(N)=O)NC1=O

Key:
[1] = target: T1, GIPR (CHO-K1-hGIPR cells); assay: FACS binding assay; details: competition with 20 nM GIP-057, 4° C. for 1 hour, read-out: pIC50 Category (converted)
How it was run: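 Peptide binding read by flow cytometry as APC-channel median fluorescence, fitted with a four-parameter logistic to yield EC50 or IC50. Cells were hGIPR-transfected CHO-K1 in PBS with 1% FCS, detected with 1 μg/mL APC-streptavidin, 30 min on ice.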

[2] = target: T2, human GIP receptor (bioGIPR); assay: Surface plasmon resonance (SPR) based binding assay; details: Single Cycle Kinetic mode, 25° C.; for t1/2 Category: SPR dissociation half-life; for Kd: SPR, 1:1 Langmuir binding model, read-out: pKD Category (converted)
How it was run: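 Binding was measured at 25 °C by single-cycle kinetics against a reference flow cell, with blank-run and drift correction, after capturing biotinylated GIPR extracellular domain to ~3500 RU. Running buffer: HBST, 0.1% DMSO. A 1:1 Langmuir model gave kinetic rates, KD, t1/2 and pKD.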

[3] = target: human Gastric Inhibitory Peptide Receptor (GIPR) (human) (UniProt P48546); assay: FACS competition vs biotinylated GIP-057 on CHO-K1-hGIPR cells; category A: pIC50 >8.0

| Molecule | IC50 [1] | t1/2 Category [2] | Kd [2] | pIC50 [3] |
| --- | --- | --- | --- | --- |
| CC[C@H](C)[C@@H]1NC(=O)[C@H](CC(C)C)NC(=O)C2(CCOCC2)NC(=O)[C@@H](NC(=O)[C@@H](CC(C)C)NC(=O)[C@H](CCCCN)NC(=O)[C@@H]2C[C@@H](O)CN2C(=O)[C@H](Cc2c[nH]c3ccc(Cl)cc23)NC(=O)[C@H](Cc2c[nH]c3ccccc23)NC(=O)[C@H](CC(=O)O)NC(C)=O)CSCc2cccc(n2)CSC[C@@H](C(N)=O)NC1=O [GIP-375, Ac-Asp-Trp-5Clw-Hyp-Lys-leu-[Cys(2Lut)-Thp-Leu-Ile-Cys]-NH2] (Ac-DW[Trp(5-Cl)][Hyp]K[dL]C[Thp]LIC-NH2; linker 7-11 via Pyridine(2,6-diCH2)) | < 10 nM | A (t1/2 values>15 min) | 1 to 7.94 nM | – |
| CC[C@H](C)[C@@H]1NC(=O)[C@H](CC(C)C)NC(=O)C2(CCOCC2)NC(=O)[C@@H](NC(=O)[C@@H](CC(C)C)NC(=O)[C@H](CCCNC(=N)N)NC(=O)[C@@H]2C[C@@H](O)CN2C(=O)[C@H](Cc2c[nH]c3ccc(Cl)cc23)NC(=O)[C@H](Cc2c[nH]c3ccccc23)NC(=O)[C@H](CC(=O)O)NC(C)=O)CSCc2cccc(n2)CSC[C@@H](C(N)=O)NC1=O [GIP-376, Ac-Asp-Trp-5Clw-Hyp-Arg-leu-[Cys(2Lut)-Thp-Leu-Ile-Cys]-NH2] (Ac-DW[Trp(5-Cl)][Hyp]R[dL]C[Thp]LIC-NH2; linker 7-11 via Pyridine(2,6-diCH2)) | < 10 nM | A (t1/2 values>15 min) | 1 to 7.94 nM | – |
| CC[C@H](C)[C@@H]1NC(=O)[C@H](CC(C)C)NC(=O)C2(CCOCC2)NC(=O)[C@@H](NC(=O)[C@@H](CC(C)C)NC(=O)[C@H](Cc2c[nH]cn2)NC(=O)[C@@H]2C[C@@H](O)CN2C(=O)[C@H](Cc2c[nH]c3ccc(Cl)cc23)NC(=O)[C@H](Cc2c[nH]c3ccccc23)NC(=O)[C@H](CC(=O)O)NC(C)=O)CSCc2cccc(n2)CSC[C@@H](C(N)=O)NC1=O [GIP-377, Ac-Asp-Trp-5Clw-Hyp-His-leu-[Cys(2Lut)-Thp-Leu-Ile-Cys]-NH2] (Ac-DW[Trp(5-Cl)][Hyp]H[dL]C[Thp]LIC-NH2; linker 7-11 via Pyridine(2,6-diCH2)) | < 10 nM | A (t1/2 values>15 min) | 1 to 7.94 nM | – |
| CC[C@H](C)[C@@H]1NC(=O)[C@H](CC(C)C)NC(=O)C2(CCOCC2)NC(=O)[C@@H](NC(=O)[C@@H](CC(C)C)NC(=O)[C@H](CCCCCN)NC(=O)[C@@H]2C[C@@H](O)CN2C(=O)[C@H](Cc2c[nH]c3ccc(Cl)cc23)NC(=O)[C@H](Cc2c[nH]c3ccccc23)NC(=O)[C@H](CC(=O)O)NC(C)=O)CSCc2cccc(n2)CSC[C@@H](C(N)=O)NC1=O [GIP-378, Ac-Asp-Trp-5Clw-Hyp-Hly-leu-[Cys(2Lut)-Thp-Leu-Ile-Cys]-NH2] (Ac-DW[Trp(5-Cl)][Hyp][hLys][dL]C[Thp]LIC-NH2; linker 7-11 via Pyridine(2,6-diCH2)) | < 10 nM | A (t1/2 values>15 min) | 1 to 7.94 nM | – |
| CC[C@H](C)[C@@H]1NC(=O)[C@H](CC(C)C)NC(=O)C2(CCOCC2)NC(=O)[C@@H](NC(=O)[C@@H](CC(C)C)NC(=O)[C@H](CCCCNC(=N)N)NC(=O)[C@@H]2C[C@@H](O)CN2C(=O)[C@H](Cc2c[nH]c3ccc(Cl)cc23)NC(=O)[C@H](Cc2c[nH]c3ccccc23)NC(=O)[C@H](CC(=O)O)NC(C)=O)CSCc2cccc(n2)CSC[C@@H](C(N)=O)NC1=O [GIP-395, Ac-Asp-Trp-5Clw-Hyp-Har-leu-[Cys(2Lut)-Thp-Leu-Ile-Cys]-NH2] (Ac-DW[Trp(5-Cl)][Hyp][hArg][dL]C[Thp]LIC-NH2; linker 7-11 via Pyridine(2,6-diCH2)) | 10 to 79.4 nM | A (t1/2 values>15 min) | 1 to 7.94 nM | – |
| Ac-DW[Phe(3,4-Cl2)][Hyp]E[dL]C[Thp]LIC-NH2 (linker 7-11 via 2Lut″) [Ac-Asp-Trp-Eaa-Hyp-Glu-leu-[Cys(2Lut)-Thp-Leu-Ile-Cys]-NH2] | – | – | – | > 8 pic50 |
| Ac-DW[Trp(5-Cl)][Ser(ΨH,HPro)]E[dL]C[Thp]LIC-NH2 (linker 7-11 via Pyridine(2,6-diCH2)) [Ac-Asp-Trp-5Clw-Oxa-Glu-leu-[Cys(2Lut)-Thp-Leu-Ile-Cys]-NH2] | – | – | – | > 8 pic50 |
| Ac-DW[Trp(5-Cl)][Hyp][pS][dL]C[Thp]LIC-NH2 (linker 7-11 via Pyridine(2,6-diCH2)) [Ac-Asp-Trp-5Clw-Hyp-Pse-leu-[Cys(2Lut)-Thp-Leu-Ile-Cys]-NH2] | – | – | – | > 8 pic50 |
| Ac-DW[Trp(5-Cl)][Thz]E[dL]C[Thp]LIC-NH2 (linker 7-11 via Pyridine(2,6-diCH2)) [Ac-Asp-Trp-5Clw-Eaz-Glu-leu-[Cys(2Lut)-Thp-Leu-Ile-Cys]-NH2] | – | – | – | > 8 pic50 |
| B1 | – | – | – | > 8 pic50 |
| Ac-D[Trp(7-F)][Trp(5-Cl)][Hyp]E[dL]C[Thp]LIC-NH2 (linker 7-11 via Pyridine(2,6-diCH2)) [Ac-Asp-7Fw-5Clw-Hyp-Glu-leu-[Cys(2Lut)-Thp-Leu-Ile-Cys]-NH2] | – | – | – | > 8 pic50 |
| Ac-DW[Trp(5-Cl)][Hyp][NMeE]LC[Thp]LIC-NH2 (linker 7-11 via Pyridine(2,6-diCH2)) [Ac-Asp-Trp-5Clw-Hyp-Nme-Leu-[Cys(2Lut)-Thp-Leu-Ile-Cys]-NH2] | – | – | – | > 8 pic50 |
| Ac-D[Phe(4-Cl)][Trp(5-Cl)][Hyp]E[dL]C[Thp]LIC-NH2 (linker 7-11 via Pyridine(2,6-diCH2)) [Ac-Asp-Pcf-5Clw-Hyp-Glu-leu-[Cys(2Lut)-Thp-Leu-Ile-Cys]-NH2] | – | – | – | > 8 pic50 |
| B2 | – | – | – | > 8 pic50 |
| B3 | – | – | – | > 8 pic50 |
| B4 | – | – | – | > 8 pic50 |
| Ac-DW[Trp(5-Cl)][Hyp][dE]LC[Thp]LIC-NH2 (linker 7-11 via Pyridine(2,6-diCH2)) [Ac-Asp-Trp-5Clw-Hyp-glu-Leu-[Cys(2Lut)-Thp-Leu-Ile-Cys]-NH2] | – | – | – | > 8 pic50 |
| Ac-DW[Trp(5-Cl)][Thz(5,5-Me2)]E[dL]C[Thp]LIC-NH2 (linker 7-11 via Pyridine(2,6-diCH2)) [Ac-Asp-Trp-5Clw-Dtc-Glu-leu-[Cys(2Lut)-Thp-Leu-Ile-Cys]-NH2] | – | – | – | > 8 pic50 |
| {HO‑Glutar}-W[Trp(5-Cl)][Hyp]E[dL]C[Thp]LIC-NH2 (linker 6-10 via 2Lut) [HO-Glutar-Trp-5Clw-Hyp-Glu-leu-[Cys(2Lut)-Thp-Leu-Ile-Cys]-NH2] | – | – | – | > 8 pic50 |
